Tests used:
Format in all cases: functional
LOX IMVI = test: Growth inhibition of human LOX IMVI cells after 48 hrs by SRB protein assay
HCC 2998 = test: Growth inhibition of human HCC2998 cells after 48 hrs by SRB protein assay; conditions: HCC 2998, 48 h
OVCAR-3 = test: Growth inhibition of human OVCAR-3 cells after 48 hrs by SRB protein assay; conditions: OVCAR-3, 48 h
NCI-H226 = test: Growth inhibition of human NCI-H226 cells after 48 hrs by SRB protein assay; conditions: NCI-H226, 48 h
OVCAR-5 = test: Growth inhibition of human OVCAR5 cells after 48 hrs by SRB protein assay; conditions: OVCAR-5, 48 h
SF-268 [1] = test: Growth inhibition of human SF268 cells after 48 hrs by SRB protein assay; conditions: SF-268, 48 h
HOP-62 = test: Growth inhibition of human HOP62 cells after 48 hrs by SRB protein assay; conditions: HOP-62, 48 h
KM12 = test: Growth inhibition of human KM12 cells after 48 hrs by SRB protein assay; conditions: KM12, 48 h
SK-MEL-2 = test: Growth inhibition of human SK-MEL-2 cells after 48 hrs by SRB protein assay; conditions: SK-MEL-2, 48 h
HCT-15 = test: Growth inhibition of human HCT15 cells after 48 hrs by SRB protein assay; conditions: HCT-15, 48 h
786-0 = test: Growth inhibition of human 786-0 cells after 48 hrs by SRB protein assay; conditions: 786-0, 48 h
RXF 393 = test: Growth inhibition of human RXF393 cells after 48 hrs by SRB protein assay; conditions: RXF 393, 48 h
MCF7 = test: Growth inhibition of human MCF7 cells after 48 hrs by SRB protein assay; conditions: MCF7, 48 h
NCI-H522 = test: Growth inhibition of human NCI-H522 cells after 48 hrs by SRB protein assay; conditions: NCI-H522, 48 h
SK-MEL-5 = test: Growth inhibition of human SK-MEL-5 cells after 48 hrs by SRB protein assay; conditions: SK-MEL-5, 48 h
RPMI-8226 = test: Growth inhibition of human RPMI8226 cells after 48 hrs by SRB protein assay; conditions: RPMI-8226, 48 h
CAKI-1 = test: Growth inhibition of human CAKI1 cells after 48 hrs by SRB protein assay; conditions: CAKI-1, 48 h
NCI-H460 = test: Anticancer activity against human NCI-H460 cells assessed as growth of cells at 100 uM relative to untreated cells
OVCAR-8 = test: Growth inhibition of human OVCAR8 cells after 48 hrs by SRB protein assay; conditions: OVCAR-8, 48 h
SK-OV-3 = test: Growth inhibition of human SK-OV-3 cells after 48 hrs by SRB protein assay; conditions: SK-OV-3, 48 h
K562 = test: Growth inhibition of human K562 cells after 48 hrs by SRB protein assay; conditions: K562, 48 h
UACC-62 = test: Growth inhibition of human UACC62 cells after 48 hrs by SRB protein assay; conditions: UACC-62, 48 h
SN12C = test: Growth inhibition of human SN12C cells after 48 hrs by SRB protein assay
ACHN = test: Growth inhibition of human ACHN cells after 48 hrs by SRB protein assay
NCI/ADR-RES = test: Growth inhibition of human NCI/ADR-RES cells after 48 hrs by SRB protein assay
IGROV-1 = test: Growth inhibition of human IGROV1 cells after 48 hrs by SRB protein assay; conditions: IGROV-1, 48 h
UO-31 = test: Growth inhibition of human UO31 cells after 48 hrs by SRB protein assay; conditions: UO-31, 48 h
BT-549 = test: Growth inhibition of human BT549 cells after 48 hrs by SRB protein assay; conditions: BT-549, 48 h
CCRF-CEM = test: Growth inhibition of human CCRF-CEM cells after 48 hrs by SRB protein assay
EKVX = test: Growth inhibition of human EKVX cells after 48 hrs by SRB protein assay
SF-295 = test: Growth inhibition of human SF295 cells after 48 hrs by SRB protein assay; conditions: SF-295, 48 h
PC-3 = test: Growth inhibition of human PC3 cells after 48 hrs by SRB protein assay; conditions: PC-3, 48 h
A549 = test: Growth inhibition of human A549/ATCC cells after 48 hrs by SRB protein assay; conditions: A549, 48 h
SF-268 [2] = test: Anticancer activity against human SF268 cells assessed as growth of cells at 100 uM relative to untreated cells
[3] = Growth inhibition of human MDA-MB-231/ATCC cells after 48 hrs by SRB protein assay; conditions: MDA-MB-231, 48 h
SK-MEL-28 = test: Growth inhibition of human SK-MEL-28 cells after 48 hrs by SRB protein assay; conditions: SK-MEL-28, 48 h
SW-620 = test: Growth inhibition of human SW620 cells after 48 hrs by SRB protein assay; conditions: SW-620, 48 h
T47D = test: Growth inhibition of human T47D cells after 48 hrs by SRB protein assay
Hs-578T = test: Growth inhibition of human HS578T cells after 48 hrs by SRB protein assay
M14 = test: Growth inhibition of human M14 cells after 48 hrs by SRB protein assay; conditions: M14, 48 h

GI50 (HCC 2998): 38 µM
GI50 (OVCAR-3): 21.9 µM
GI50 (NCI-H226): 91.2 µM
GI50 (OVCAR-5): 22.4 µM
GI50 (SK-MEL-2): > 100 µM
GI50 (HCT-15): 15.8 µM
GI50 (786-0): 20.4 µM
GI50 (MCF7): 43.7 µM
GI50 (NCI-H522): 26.9 µM
GI50 (SK-MEL-5): > 100 µM
GI50 (RPMI-8226): 24 µM
GI50 (OVCAR-8): > 100 µM
GI50 (SK-OV-3): > 100 µM
GI50 (K562): 19.1 µM
GI50 (ACHN): 17.4 µM
GI50 (BT-549): 37.2 µM
GI50 (CCRF-CEM): 19.1 µM
GI50 (PC-3): 55 µM
GI50 (A549): > 100 µM
GI50 (SK-MEL-28): 22.9 µM
GI50 (SW-620): 32.4 µM
GI50 (T47D): 24 µM
SMILES: O=C(CC1Sc2ncnn2C1=O)Nc1ccc(Cl)cc1 (stereo not drawn)
GI50 (LOX IMVI): 20.4 µM
TGI (LOX IMVI; read-out: Log TGI (converted)): 45.7 µM
TGI (HCC 2998; read-out: Log TGI (converted)): > 100 µM
TGI (OVCAR-3; read-out: Log TGI (converted)): 51.3 µM
TGI (NCI-H226; read-out: Log TGI (converted)): > 100 µM
TGI (OVCAR-5; read-out: Log TGI (converted)): 56.2 µM
GI50 (SF-268 [1]): > 100 µM
TGI (SF-268 [1]; read-out: Log TGI (converted)): > 100 µM
GI50 (HOP-62): > 100 µM
TGI (HOP-62; read-out: Log TGI (converted)): > 100 µM
GI50 (KM12): > 100 µM
TGI (KM12; read-out: Log TGI (converted)): > 100 µM
TGI (SK-MEL-2; read-out: Log TGI (converted)): > 100 µM
TGI (HCT-15; read-out: Log TGI (converted)): 40.7 µM
TGI (786-0; read-out: Log TGI (converted)): 43.7 µM
GI50 (RXF 393): 25.1 µM
TGI (RXF 393; read-out: Log TGI (converted)): 51.3 µM
TGI (MCF7; read-out: Log TGI (converted)): > 100 µM
TGI (NCI-H522; read-out: Log TGI (converted)): 64.6 µM
TGI (SK-MEL-5; read-out: Log TGI (converted)): > 100 µM
TGI (RPMI-8226; read-out: Log TGI (converted)): 100 µM
GI50 (CAKI-1): > 100 µM
TGI (CAKI-1; read-out: Log TGI (converted)): > 100 µM
Activity (NCI-H460): 0%
TGI (OVCAR-8; read-out: Log TGI (converted)): > 100 µM
TGI (SK-OV-3; read-out: Log TGI (converted)): > 100 µM
TGI (K562; read-out: Log TGI (converted)): 43.7 µM
GI50 (UACC-62): > 100 µM
TGI (UACC-62; read-out: Log TGI (converted)): > 100 µM
GI50 (SN12C): 22.9 µM
TGI (SN12C; read-out: Log TGI (converted)): 53.7 µM
TGI (ACHN; read-out: Log TGI (converted)): 30.9 µM
GI50 (NCI/ADR-RES): 38 µM
TGI (NCI/ADR-RES; read-out: Log TGI (converted)): > 100 µM
GI50 (IGROV-1): > 100 µM
TGI (IGROV-1; read-out: Log TGI (converted)): > 100 µM
GI50 (UO-31): 22.9 µM
TGI (UO-31; read-out: Log TGI (converted)): 45.7 µM
TGI (BT-549; read-out: Log TGI (converted)): 95.5 µM
TGI (CCRF-CEM; read-out: Log TGI (converted)): 41.7 µM
GI50 (EKVX): > 100 µM
TGI (EKVX; read-out: Log TGI (converted)): > 100 µM
GI50 (SF-295): > 100 µM
TGI (SF-295; read-out: Log TGI (converted)): > 100 µM
TGI (PC-3; read-out: Log TGI (converted)): > 100 µM
TGI (A549; read-out: Log TGI (converted)): > 100 µM
Activity (SF-268 [2]): 107%
GI50 [3]: 31.6 µM
TGI ([3]; read-out: Log TGI (converted)): 83.2 µM
TGI (SK-MEL-28; read-out: Log TGI (converted)): 57.5 µM
TGI (SW-620; read-out: Log TGI (converted)): 79.4 µM
TGI (T47D; read-out: Log TGI (converted)): 61.7 µM
GI50 (Hs-578T): > 100 µM
TGI (Hs-578T; read-out: Log TGI (converted)): > 100 µM
GI50 (M14): 35.5 µM
TGI (M14; read-out: Log TGI (converted)): > 100 µM
